Measurements taken from patent publication US8530512B2, “Broad spectrum gram-positive antimicrobials and anthelmintics with efficacy against drug-resistant strains and Mycobacterium species” (priority 2004, dated 2013).
≈ marks a conversion by molar mass, not a printed value. Like-named read-outs stand apart in the source and are kept apart here.

Tests used:
[1] = test system: Enterococcus faecium VRE 1; experiment: organism not typed; assay type: cell-based; conditions: for MIC E. faecium VRE 1, G+: Table 3; for MIC: read-out: MIC VRE
M. smegmatis = experiment: MIC assay; assay type: cell-based; conditions: Mycolicibacterium smegmatis, read-out: MIC M. smegmatis
C. elegans = experiment: motility assay; assay type: in vivo; design: key to Movement score, 1/1600 / Movement score, 1/800 / Movement score, 1/400 / Movement score, 1/200 / Movement score, 1/100: normal (−); slow (+); very slow (++); not motile/paralyzed (+++); conditions: for Movement score, 1/100: dilution 1/100 of stock (10.24 μg/μL; SK-03-92 1.024 μg/μL); for Movement score, 1/100 / Movement score, 1/200 / Movement score, 1/400 / Movement score, 1/800 / Movement score, 1/1600: Ive 1 ng/μL in all wells; for Movement score, 1/200: dilution 1/200 of stock (10.24 μg/μL; SK-03-92 1.024 μg/μL); for Movement score, 1/400: dilution 1/400 of stock (10.24 μg/μL; SK-03-92 1.024 μg/μL); for Movement score, 1/800: dilution 1/800 of stock (10.24 μg/μL; SK-03-92 1.024 μg/μL); for Movement score, 1/1600: dilution 1/1600 of stock (10.24 μg/μL; SK-03-92 1.024 μg/μL), overnight 20° C.; for effect on worms at the lowest concentrations tested: at least triplicate
[2] = test system: Staphylococcus aureus ATCC 29213; experiment: microbe, parasite or virus in culture; assay type: cell-based; conditions: Staphylococcus aureus, ATCC29213; per-compound listing, Example 6; read-out: MIC S. aureus
Streptococcus pyogenes = experiment: microbe, parasite or virus in culture; assay type: cell-based; conditions: for MIC: Streptococcus pyogenes, per-compound listing, Example 6, read-out: MIC S. pyogenes; for MIC S. pyogenes, G+: Table 3
[3] = test system: Staphylococcus aureus MRSA MC-1; experiment: microbe, parasite or virus in culture; assay type: cell-based; conditions: Staphylococcus aureus, MRSA, read-out: MIC MRSA
Bacillus cereus = experiment: microbe, parasite or virus in culture; assay type: cell-based; conditions: for MIC: Bacillus cereus, per-compound listing, Example 6, read-out: MIC B. cereus; for MIC B. cereus, G+ (anthrax surrogate): Table 3
C. elegans L1 larvae = experiment: developmental assay; assay type: in vivo; design: key to Developmental score, 1/1600 / Developmental score, 1/800 / Developmental score, 1/400 / Developmental score, 1/200 / Developmental score, 1/100: dead (+++); distressed (++); slightly delayed (+); the same as M9-only untreated wells (−); conditions: for Developmental score, 1/100: dilution 1/100; for Developmental score, 1/100 / Developmental score, 1/200 / Developmental score, 1/400 / Developmental score, 1/800 / Developmental score, 1/1600: after four days, Ive 1 ng/μL in each well; for Developmental score, 1/200: dilution 1/200; for Developmental score, 1/400: dilution 1/400; for Developmental score, 1/800: dilution 1/800; for Developmental score, 1/1600: dilution 1/1600
[4] = per-compound listing, Example 6

Compound | MIC (M. smegmatis; [4]) [µg/mL] | Movement score, 1/100 (C. elegans) | Movement score, 1/200 (C. elegans) | Movement score, 1/400 (C. elegans) | Movement score, 1/800 (C. elegans) | Movement score, 1/1600 (C. elegans) | MIC [2] [µg/mL] | MIC [3] [µg/mL] | MIC (Bacillus cereus) [µg/mL] | Developmental score, 1/100 (C. elegans L1 larvae) | Developmental score, 1/200 (C. elegans L1 larvae) | Developmental score, 1/400 (C. elegans L1 larvae) | Developmental score, 1/800 (C. elegans L1 larvae) | Developmental score, 1/1600 (C. elegans L1 larvae) | also measured
COc1cc(O)cc(O/C=C/c2ccccc2)c1 [CL-2, Phenyl-E-(3-hydroxy-5methoxy)-styryl ether] | 128 (≈ 528 µM) | +++ | +++ | +++ | − | − | 32 (≈ 132 µM) | 32 (≈ 132 µM) | 64 (≈ 264 µM) |  |  |  |  |  | MIC E. faecium VRE 1, G+ [1]: 32 µg/mL (≈ 132 µM); MIC [1]: 32 µg/mL (≈ 132 µM); MIC (Streptococcus pyogenes): 16 µg/mL (≈ 66 µM); MIC S. pyogenes, G+ (Streptococcus pyogenes): 16 µg/mL (≈ 66 µM); MIC B. cereus, G+ (anthrax surrogate) (Bacillus cereus): 64 µg/mL (≈ 264 µM)
COc1cc(O)cc(/C=C/Oc2ccccc2C)c1 [Compound A11, 2-Methylphenyl-E-(3-hydroxy-5-methoxy)-styryl ether] | > 128 |  |  |  |  |  | 16 (≈ 62.4 µM) | 32 (≈ 125 µM) | 32 (≈ 125 µM) |  |  |  |  |  | MIC E. faecium VRE 1, G+ [1]: 32 µg/mL (≈ 125 µM); MIC [1]: 32 µg/mL (≈ 125 µM); MIC (Streptococcus pyogenes): 32 µg/mL (≈ 125 µM); MIC S. pyogenes, G+ (Streptococcus pyogenes): 32 µg/mL (≈ 125 µM); MIC B. cereus, G+ (anthrax surrogate) (Bacillus cereus): 64 µg/mL (≈ 250 µM)
Oc1cc(O)cc(/C=C/c2csc3ccccc23)c1 [SK-03-44F2] |  |  |  |  |  |  | 32 (≈ 119 µM) | > 512 | 256 (≈ 954 µM) |  |  |  |  |  | MIC (M. smegmatis): > 512 µg/mL
COc1cc(O)cc(/C=C/Oc2ccccc2)c1 [CL-1, Phenyl-E-(3-hydroxy-5-methoxy)-styryl ether] | 128 (≈ 528 µM) | +++ | +++ | − | − | − | 32 (≈ 132 µM) | 64 (≈ 264 µM) | 32 (≈ 132 µM) |  |  |  |  |  | MIC E. faecium VRE 1, G+ [1]: 64 µg/mL (≈ 264 µM); MIC [1]: 64 µg/mL (≈ 264 µM); MIC (Streptococcus pyogenes): 32 µg/mL (≈ 132 µM); MIC S. pyogenes, G+ (Streptococcus pyogenes): 32 µg/mL (≈ 132 µM); MIC B. cereus, G+ (anthrax surrogate) (Bacillus cereus): 16 µg/mL (≈ 66 µM)
Oc1cc(O)cc(/C=C/c2ccc3ccccc3c2)c1 [SK-03-28F3] | > 512 |  |  |  |  |  | 8 (≈ 30.5 µM) | 256 (≈ 976 µM) | 8 (≈ 30.5 µM) |  |  |  |  |  | 
COc1cc(O)cc(/C=C/c2ccc3ccccc3c2)c1 [SK-03-28F2] | 256 (≈ 926 µM) | +++ | +++ | ++ | ++ | − | 8 (≈ 29 µM) |  | 16 (≈ 57.9 µM) | +++ | +++ | − | − | − | effect on worms at the lowest concentrations tested (C. elegans): reduced motility, paralysis, or death
ivermectin [reference compound] |  | +++ | +++ | +++ | +++ | +++ |  |  |  | +++ | +++ | +++ | ++ | ++ | animals affected (C. elegans; 0.25 ng/μL, overnight): Over 40%; animals paralyzed (C. elegans; 0.5 ng/μL): more than 90%; paralysis (C. elegans; 0.5 ng/μl, FIG. 9): Most worms were paralyzed; paralysis (C. elegans; 1 ng/μL): All worms were paralyzed; lowest effective concentration (C. elegans; molar equivalent of 0.25 ng/μL): ~140 nM; lowest effective concentration (C. elegans; overnight, soaking, mixed population): 0.25 ng/µL
COc1cc(O)cc(/C=C/Sc2ccc3ccccc3c2)c1 [SK-05-17] | 128 (≈ 415 µM) | ++ | ++ | ++ | ++ | ++ | 4 (≈ 13 µM) |  | 4 (≈ 13 µM) | +++ | ++ | ++ | − | − | effect on worms at the lowest concentration tested (most active) (C. elegans; lowest concentration tested): severe distress; effect on worms at the lowest concentrations tested (C. elegans): reduced motility, paralysis, or death
COc1cc(O)cc(/C=C/Sc2cccc3ccccc23)c1 [SK-05-16] | 128 (≈ 415 µM) | ++ | ++ | ++ | + | − | 4 (≈ 13 µM) |  | 4 (≈ 13 µM) | ++ | − | − | − | − | 
CCC(C)CS/C=C/c1cc(O)cc(OC)c1 (centres unmarked) [SK-05-22] | 128 (≈ 507 µM) | +++ | +++ | ++ | + | − | 16 (≈ 63.4 µM) |  | 16 (≈ 63.4 µM) | +++ | +++ | +++ | + | − | effect at the two highest dilutions (C. elegans L1 larvae): death or delays in development
COc1cc(O)cc(/C=C/SC2CCCCC2)c1 [SK-04-50] |  | ++ | + | + | + | + |  |  |  | +++ | + | − | − | − | 
CCOC(=O)/C=C\Sc1nc2ccccc2s1 [SK-04-59F1] |  | − | − | − | − | − |  |  |  |  |  |  |  |  | 
COc1cc(O)cc(/C=C/Sc2ccc(C(C)(C)C)cc2)c1 [SK-05-04] | 128 (≈ 407 µM) |  |  |  |  |  | 16 (≈ 50.9 µM) |  | 8 (≈ 25.4 µM) |  |  |  |  |  | 
COc1cc(O)cc(/C=C/Sc2ccccc2C(C)C)c1 [SK-05-01] | 256 (≈ 852 µM) | + | − | − | − | − | 16 (≈ 53.3 µM) |  | 16 (≈ 53.3 µM) |  |  |  |  |  | 
